In ChEMBL document CHEMBL1136267, “Design and synthesis of novel PPARalpha/gamma/delta triple activators using a known PPARalpha/gamma dual activator as structural template” (Bioorg Med Chem Lett, 2003):

Experiments:
[1] = molecular target: T1, Peroxisome proliferator-activated receptor delta (Homo sapiens, UniProt Q03181); experiment: In vitro activation of human peroxisome proliferator activated receptor delta (PPAR delta)
T1 sequence (Q03181 whole entry): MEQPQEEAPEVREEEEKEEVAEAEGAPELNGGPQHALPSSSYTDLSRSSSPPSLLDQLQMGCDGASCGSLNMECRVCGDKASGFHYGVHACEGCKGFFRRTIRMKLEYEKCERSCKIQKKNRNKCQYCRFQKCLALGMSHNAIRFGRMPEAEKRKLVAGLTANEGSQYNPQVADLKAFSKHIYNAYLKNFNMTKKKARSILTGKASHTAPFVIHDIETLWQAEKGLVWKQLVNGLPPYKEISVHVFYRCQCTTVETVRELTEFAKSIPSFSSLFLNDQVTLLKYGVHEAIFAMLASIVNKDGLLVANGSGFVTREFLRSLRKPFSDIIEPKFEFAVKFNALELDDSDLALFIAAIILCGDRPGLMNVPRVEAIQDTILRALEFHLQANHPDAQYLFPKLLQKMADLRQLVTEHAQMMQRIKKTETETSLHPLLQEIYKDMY

[2] = molecular target: T2, Peroxisome proliferator-activated receptor alpha (Homo sapiens, UniProt Q07869)
T2 sequence (Q07869 whole entry): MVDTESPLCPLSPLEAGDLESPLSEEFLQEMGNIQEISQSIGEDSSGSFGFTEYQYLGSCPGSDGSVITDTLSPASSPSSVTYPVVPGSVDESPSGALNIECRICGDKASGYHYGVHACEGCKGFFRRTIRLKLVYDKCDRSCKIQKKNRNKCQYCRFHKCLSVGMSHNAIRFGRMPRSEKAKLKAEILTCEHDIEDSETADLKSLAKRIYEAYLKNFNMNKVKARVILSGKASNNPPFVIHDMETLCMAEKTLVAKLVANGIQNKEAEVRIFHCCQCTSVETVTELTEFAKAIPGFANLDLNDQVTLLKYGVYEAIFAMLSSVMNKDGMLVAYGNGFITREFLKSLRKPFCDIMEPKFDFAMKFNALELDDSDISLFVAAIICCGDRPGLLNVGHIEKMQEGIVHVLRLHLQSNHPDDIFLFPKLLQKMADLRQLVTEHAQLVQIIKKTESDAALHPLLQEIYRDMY
Description: In vitro activation of human peroxisome proliferator activated receptor alpha

[3] = molecular target: T3, Peroxisome proliferator-activated receptor gamma (Homo sapiens, UniProt P37231); experiment: In vitro activation of human peroxisome proliferator activated receptor gamma (PPAR gamma)
T3 sequence (P37231 whole entry): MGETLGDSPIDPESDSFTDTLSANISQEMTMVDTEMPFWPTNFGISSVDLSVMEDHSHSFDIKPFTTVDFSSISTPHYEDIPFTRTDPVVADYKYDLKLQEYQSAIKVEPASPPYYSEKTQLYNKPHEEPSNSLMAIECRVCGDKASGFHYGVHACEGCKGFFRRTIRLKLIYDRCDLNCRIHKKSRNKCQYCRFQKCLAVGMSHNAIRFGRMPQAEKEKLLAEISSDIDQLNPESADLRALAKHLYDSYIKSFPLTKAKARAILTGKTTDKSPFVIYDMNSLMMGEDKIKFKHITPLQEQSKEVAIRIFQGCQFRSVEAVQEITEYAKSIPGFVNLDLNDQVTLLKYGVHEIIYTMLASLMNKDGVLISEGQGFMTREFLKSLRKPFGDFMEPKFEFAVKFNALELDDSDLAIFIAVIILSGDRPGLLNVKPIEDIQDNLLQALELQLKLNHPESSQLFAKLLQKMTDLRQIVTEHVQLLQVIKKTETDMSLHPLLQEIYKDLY

SMILES	EC50 [1]	EC50 [2]	EC50 [3]
CCO[C@@H](Cc1ccc(OCC=C(c2ccc(OC)cc2)c2ccc(OC)cc2)cc1)C(=O)O	0.7 µM	2.2 µM	2.2 µM
CCO[C@@H](Cc1ccc(OCC=C(c2ccc(-c3ccccc3)cc2)c2ccc(-c3ccccc3)cc2)cc1)C(=O)O	0.5 µM	1.1 µM	0.3 µM
CCO[C@@H](Cc1ccc(OC/C=C(\c2ccccc2)c2ccc(-c3ccccc3)cc2)cc1)C(=O)O	2.2 µM	0.9 µM	0.6 µM
CCO[C@@H](Cc1ccc(OC/C=C(/c2ccccc2)c2ccc(-c3ccccc3)cc2)cc1)C(=O)O	2.2 µM	0.7 µM	1.7 µM
CCO[C@@H](Cc1ccc(OCCN(c2ccccc2)c2ccccc2)cc1)C(=O)O		4.5 µM	3.3 µM
CCO[C@@H](Cc1ccc(OCC=C(c2ccc(-c3ccco3)cc2)c2ccc(-c3ccco3)cc2)cc1)C(=O)O	1 µM	2 µM	2.9 µM
CCO[C@@H](Cc1ccc(OCC=C(c2ccc(Br)cc2)c2ccc(Br)cc2)cc1)C(=O)O	0.4 µM	0.3 µM	0.9 µM
CCO[C@@H](Cc1ccc(OCC=C(c2ccc(C)cc2)c2ccc(C)cc2)cc1)C(=O)O	2 µM	0.7 µM	3.1 µM
CCO[C@@H](Cc1ccc(OC/C=C(\c2ccccc2)c2ccc(-c3ccco3)cc2)cc1)C(=O)O	0.6 µM	0.3 µM	0.8 µM
CCO[C@@H](Cc1ccc(OC/C=C(/c2ccccc2)c2ccc(-c3ccco3)cc2)cc1)C(=O)O	2 µM	0.4 µM	2 µM

The next lines start with the values.

EC50 [1]	EC50 [2]	EC50 [3]	SMILES
5.7 µM	6.4 µM	2.7 µM	CCO[C@@H](Cc1ccc(OCC=C(c2ccccc2)c2ccccc2)cc1)C(=O)O
3.4 µM	3.2 µM	4 µM	CCO[C@@H](Cc1ccc(OC/C=C(/c2ccccc2)c2ccc(F)cc2)cc1)C(=O)O
8.3 µM	5.3 µM	8.5 µM	CCO[C@@H](Cc1ccc(OC/C=C(\c2ccccc2)c2ccc(F)cc2)cc1)C(=O)O
3.4 µM	2.2 µM	4.3 µM	CCO[C@@H](Cc1ccc(OC/C=C(/c2ccccc2)c2ccc(Br)cc2)cc1)C(=O)O
0.9 µM	1.1 µM	1.5 µM	CCO[C@@H](Cc1ccc(OC/C=C(\c2ccccc2)c2ccc(Br)cc2)cc1)C(=O)O
